Patent US20200205406A1, “MICROBIOCIDAL PHENYLAMIDINE DERIVATIVES WITH IMPROVED PLANT SAFETY PROPERTIES” (SYNGENTA PARTICIPATIONS AG, priority 2017, published 2020)

- melting point: 59 to 60 °C
Compound: CCN(C)C=Nc1cc(OC)c(Oc2ccccc2)cc1C
